In patent US9097673B2, “Processes and kits for determining multi-drug resistance of cells” (ENZO LIFE SCIENCES, INC., priority 2010, dated 2015):

Assays:
Hep G2 cells = experiment: Dye uptake flow cytometry MDR assay; assay type: cell-based, human; parameters: key: Kolmogorov-Smirnov D statistic comparing fluorescence distributions; conditions: HepG2, dye uptake
Protocol: Cells were grown on tissue culture dishes and on the day of assay were trypsinized and washed twice with warm (37° C.) phosphate-buffered saline (PBS). Post-wash, the cells were re-suspended in warm phenol red indicator-free medium at a density of 1×10^6/ml. For each detection set, sixteen tubes (5 samples in triplicates plus non-stained control for background fluorescence) in numbered tubes each containing 5×10^5/cells (0.5 ml) were prepared. […] After incubation for 5 min at 37° C., 0.25 ml of warm medium with Fluo-8™ AM probe (5 μM final concentration) or Rhod-4™ AM probe (2 μM final concentration) was added to each tube excluding non-stained control that receives plain medium and cells were incubated for 30 min at 37° C. and analyzed immediately by flow cytometry. In the second set of the tubes, the reaction was stopped by rapid centrifugation (1 min) at relatively low speed (200×g). After wash with ice-cold PBS and discarding the supernatant, cells were re-suspended in 0.5 ml of ice-cold medium and kept on ice until flow cytometry analysis. The third set of cells simply was spun down (1 min, 200×g) to remove the excess of the probe, resuspended in ice-cold medium and kept on ice until flow cytometry analysis.
Flow cytometry experiments were performed using a FACS Calibur benchtop flow cytometer (BD Biosciences) equipped with a blue (488 nm) laser, and the signals were registered in the FITC (530/30 filter), PE (585/42 filter) and PerCP (670 LP filter) channels. Fluo-8™ dye fluorescence was measured in the FL1 channel, and Rhod-4™ dye fluorescence—in the FL2 channel. Flow cytometry data were analyzed by comparison of median fluorescence or using Kolmogorov-Smirnov statistics [Young, J Histochem Cytochem 25:935-941 (1977)] or by calculating MAF values (MDR Activity Factor) using the following formula: MAF=100*((MFIinh−MFI0)/MFIinh), where MFIinh and MFI0 are mean fluorescence intensity values measured in the presence and absence of inhibitor [Hollo et al., Biochem Piophys Acta. 1191:384-388 (1994)].
Both human ileocecal colorectal carcinoma cell line HCT-8 (reported to over-express P-gp and, to a lesser extent, MRP [Hunter et al., Br J Cancer. 64:437-444 (1991); Collington et al., Biochem Pharmacol 44:417-424 (1992)] and hepatocellular carcinoma Hep G2 (reported to over-express MRP [Roelofsen et al., Gastroenterology 112:511-521 (1997), Cantz et al., Am J Physiol Gastrointest Liver Physiol. 278:G522-G531 (2000)] were obtained from ATCC. HCT-8 cells were routinely cultured in RPMI-1640 Medium with 2 mM L-glutamine, 10 mM HEPES, 1 mM sodium piruvate, 4.5 g/L glucose, 1.5 g/L sodium bicarbonate (ATCC), supplemented with 10% horse serum (ATCC) and 100 U/ml penicillin, 100 ug/ml streptomycin (Sigma-Aldrich, St. Louis, Mo.). Hep G2 cells were routinely cultured in Eagle's Minimum Essential Medium with low glucose (ATCC), supplemented with 10% heat inactivated fetal bovine serum (ATCC) and 100 U/ml penicillin, 100 ug/ml streptomycin (Sigma-Aldrich, St. Louis, Mo.). Cell cultures were maintained in a humidified incubator at 37° C., with 5% CO2 atmosphere. Stock solutions of the probes and inhibitors were prepared, as described in Examples 2 and 3. Cells were grown in tissue culture dishes and on the day of assay were treated according to a dye uptake protocol and analyzed by flow cytometry, as described in Example 3.

A549 cell line = experiment: Dye uptake flow cytometry MDR assay; assay type: cell-based, human; conditions: A549, dye uptake
Protocol: Concentrations of the modulators used in the experiments were non-toxic to the cells (based upon standard 3-(4,5-Dimethylthiazol-2-Yl)-2,5-Diphenyltetrazolium Bromide (MTT) testing, data not shown). Fluo-8™ was used in all experiments at 5 μM, and Rhod-4™—at 4 μM final concentrations.

CHO K1 cell line = experiment: Dye efflux flow cytometry MDR assay; assay type: cell-based, hamster; parameters: key to D-value, Verapamil / D-value, Novobiocin: KS D value, 0 to 1; negative if control brighter than sample; conditions: for D-value, +4° C.: kept on ice without inhibitor
Description: Kolmogorov-Smirnov statistics measures the difference between two distribution functions and generates a D value ranging between 0 and 1.0, with higher values indicating a greater difference between the distribution functions. The D value generated by the KS statistics was modified by ascribing a negative value if the fluorescence of a negative control (no inhibitor) was brighter than the fluorescence of the sample with inhibitor. The method was one of those recommended by the First International MDR1 Methods Detection Workshop (St. Jude Children's Research Hospital, Memphis, Tenn.).
Cells were grown in tissue culture dishes and on the day of assay they were trypsinized and washed twice with ice-cold PBS. Post-wash, the cells were re-suspended in cold phenol red indicator-free medium at a density of 1×10^6/ml. For each detection set, eighteen tubes (6 tubes without inhibitor and 3 tubes for each inhibitor tested, in triplicates) each containing 2.5-5×10^5/cells were prepared. Cells were centrifuged at 200×g for 5 min, and after discarding supernatant, re-suspended at 1×10^6/ml in ice-cold indicator-free medium containing Fluo-8™ AM or Rhod-4™ AM probes. Additionally, an aliquot of non-stained cells was prepared for background fluorescence measurements. Cells were incubated with the probe(s) on ice for 60 min, than centrifuged at 200×g for 5 min. After discarding the supernatant, cells were either washed twice with PBS or simply were spun down to remove the excess of the probe and resuspended at 5×10^5 cells/sample in 0.5 ml of following solutions:
1. warm (37° C.) indicator-free medium containing vehicle only (3 tubes)
2. warm (37° C.) indicator-free medium containing inhibitor (3 tubes for each inhibitor tested)
3. ice-cold indicator-free medium (3 tubes)
Tube sets 1 and 2 were immediately transferred to a water bath (37° C.) and incubated for 90 min. Tube set 3 was kept on ice. Post incubation, 4 ml of ice-cold indicator-free medium was added per tube, tubes were centrifuged at 200×g for 5 min, supernatant was discarded, and cell pellet was re-suspended in the cold indicator-free medium and centrifuged again. Finally, cells were re-suspended in 0.5 ml of cold indicator-free medium and maintained on ice until analysis. Alternatively, cells were analyzed without washing. Flow cytometry experiments were performed as described in Example 3.

[1] = average of three independent experiments (Table 10)
[2] = average of three representative experiments (Table 6)
[3] = representative experiment (Table 8)
[4] = CHO K1, dye efflux, representative experiment (Table 9)
[5] = Fluo-8 AM probe, dye efflux, CHO K1, No Wash
[6] = Fluo-8 AM probe, dye efflux, CHO K1, Wash

CC(=O)OCOC(=O)CN(CC(=O)OCOC(C)=O)c1ccccc1OCCOc1cc(-c2c3ccc(=O)cc-3oc3cc(OCOC(C)=O)ccc23)ccc1N(CC(=O)OCOC(C)=O)CC(=O)OCOC(C)=O [Fluo-8 ™ AM]
D-value, CyclosporinA (Hep G2 cells): 0.28
D-value, MK-571 (Hep G2 cells): 0.34
D-value, Novobiocin (Hep G2 cells): 0.13
D-value, Verapamil (Hep G2 cells): 0
D-value, Cyclosporine A (A549 cell line; [1]): 0.43
D-value, FTC (A549 cell line; [1]): 0.31
D-value, MK-571 (A549 cell line; [1]): 0.61
D-value, Novobiocin (A549 cell line; [1]): 0.37
D-value, Verapamil (A549 cell line; [1]): 0.06
D-value, Fumitremorgan C (A549 cell line; [2]): 0.23
D-value, Probenecid (A549 cell line; [2]): 0.26
D-value, Verapamil (A549 cell line; [2]): 0.07
D-value, Cyclosporine A (A549 cell line; [3]): 0.51
D-value, Novobiocin (A549 cell line; [3]): 0.44
D-value, Probenecid (A549 cell line; [3]): 0.49
D-value, Verapamil (A549 cell line; [3]): 0.09
D-value, 4° C. (CHO K1 cell line; CHO K1, dye efflux, kept on ice without inhibitor (Table 9)): 0.72
D-value, Cyclosporine A (CHO K1 cell line; [4]): 0.55
D-value, Novobiocin (CHO K1 cell line; [4]): 0.70
D-value, Probenecid (CHO K1 cell line; [4]): 0.30
D-value, Verapamil (CHO K1 cell line; [4]): 0.28
D-value, Cyclosporin A (CHO K1 cell line; [5]): 0.8
D-value, Novobiocin (CHO K1 cell line; [5]): 0.7
D-value, Probenecid (CHO K1 cell line; [5]): 0.19
D-value, Verapamil (CHO K1 cell line; [5]): 0.21
D-value, +4° C. (CHO K1 cell line; [5]): 0.78
D-value, Cyclosporin A (CHO K1 cell line; [6]): 0.62
D-value, Novobiocin (CHO K1 cell line; [6]): 0.79
D-value, Probenecid (CHO K1 cell line; [6]): 0.23
D-value, Verapamil (CHO K1 cell line; [6]): 0.34
D-value, +4° C. (CHO K1 cell line; [6]): 0.76
